{
  "source": "patent US9731001B2",
  "about": "“Three-dimensional cavities of dendritic cell immunoreceptor (DCIR), compounds binding thereto and therapeutic applications related to inhibition of human immunodeficiency virus type-1 (HIV-1)” (priority 2011, dated 2017)",
  "key": {"HIV-1 (NL4-3)": {"test_system": "HIV-1 (NL4-3)", "experiment": "HIV-1 binding/entry on H2O2-treated (apoptotic) CD4TL (p24)", "format": "cell-based", "conditions": "CD4TL treated with 30 μM H2O2 16 h; NL4-3 1 h; FIG. 8 panel A", "description": "FIGS. 8A and 8B are bar graphs showing the impact of DCIR inhibitors on HIV-1 transmission by apoptotic CD4^+ T cells. Target CD4^+ T cells (1×10^6) were treated for 16 h with H2O2 (30 μM) to induce the surface expression of DCIR. Cells were treated with site A inhibitors (1 and 4) or site B inhibitors (1 and 2) or vehicle (DMSO). Panel A: Cells were next exposed to NL4-3 (100 ng/ml of p24) for 1 h at 37° C., extensively washed to remove unadsorbed virions before assessing p24 content. Panel B: Cells were first incubated with NL4-3 (100 ng/ml of p24) for 2 h at 37° C., washed extensively to remove unadsorbed virions and cultured in complete RPMI-1640 supplemented with rhIL-2 for the time indicated. Cell-free supernatants were then collected and assayed for p24 content. Data shown correspond to the means±sem of 3 independent experiments performed in triplicate for panel A and the means±SEM of 2 independent experiments for panel B. The asterisks denotes statistically significant data (*, P<0.05; **, P<0.01; ***, P<0.001).\nApoptosis was induced in CD4TL activated with 30 μM H2O2 for 16 h before performing the following experimental procedures. To assay binding/entry, cells (1×10^6) were incubated for 60 min at 37° C. with NL4-3 (100 ng of p24). After three extensive washes with PBS to remove un-adsorbed virus, HIV-1 binding was quantified by estimating p24 content. […]"}, "[1]": {"test_system": "PHA-L/IL-2 activated CD4 T cells", "experiment": "Toxicity by MTT assay, PHA-L/IL-2 activated CD4 T cells", "format": "cell-based, human", "conditions": "10 uM, 10 days", "description": "(§1) FIGS. 14A-14F are a bar graphs showing the impact of the DCIR-EPS inhibitor (Cpd B2) on viability and apoptosis of TH17 polarized CD4 T cells or PHA-L/activated CD4T cells according to Example 8. Polarized CD4 TH17 cells (left panels) or PHA-L/IL-2 activated CD4 T cells (right panels) were either untreated or treated with 10 μM of DCIR-EPS inhibitor for 10 min at 37° C. Cells were then contacted with NL4-3BalEnv for 2 hrs and washed three times with PBS to remove non-adsorbed virus. Cells were then incubated for 10 days and toxicity was measured using the MTT assay (upper panels). In parallel, cells were incubated for 24 hrs and stained with Z-Vad-FMK FITC Abs to measure apoptosis) (middle panels) or with DCIR Abs lower panels).\n(§2) After observing the inhibition of p24 content in Th17 cells by the DCIR inhibitor (Cpd B2), the impact of the DCIR inhibitor on cell viability and apoptosis was determined (FIG. 14). Polarized CD4 Th17 cells (FIG. 14A, 14C, 14E) or PHA-L/IL-2 CD4T cells (FIGS. 14B, 14D, 14F) were either untreated (DMSO) or treated with 10 uM of DCIR inhibitor for 10 minutes at 37° C. and then incubated with NL4-3BalEnv or mock virus for 2 hours. […] DCIR expression on Th17 CD4 T cells and PHA-L/IL-2 activated CD4 T cells was measured with or without treatment with the DCIR inhibitor (FIGS. 14E, 14F). […]"}, "Polarized CD4 Th17 cells": {"test_system": "Polarized CD4 Th17 cells", "experiment": "Toxicity by MTT assay, polarized CD4 Th17 cells", "format": "cell-based, human", "conditions": "Th17 CD4T cells; 10 uM; 10 days", "description": "as §1, §2"}, "DCIR [2]": {"test_system": "DCIR", "experiment": "DCIR expression on PHA-L/IL-2 activated CD4 T cells", "format": "cell-based, human", "conditions": "10 uM", "description": "as §1, §2"}, "HIV-1 (NL4-3BalEnv) [3]": {"test_system": "HIV-1 (NL4-3BalEnv)", "experiment": "HIV replication in polarized Th17 CD4T cells (p24)", "format": "cell-based", "conditions": "10 μM, 3, 7 and 10 days of incubation", "description": "(§3) FIGS. 13A and 13B are a bar graphs showing impact of the DCIR-EPS inhibitor (Cpd B2) on HIV replication by activated Th17 polarized CD4T cells, according to Example 8. Polarized CD4 Th17 cells (FIG. 13A) and PHA/IL-2 activated CD4T cells (FIG. 13B) were either untreated or treated with 10 μM of DCIR-EPS inhibitor (Cpd B2) for 10 min at 37° C. Cells were then exposed to NL4-3BalEnv for 2 hrs. After three washes with PBS to remove non-adsorbed virus, cells were cultured during 10 days. Viral replication was quantified by measuring the HIV-p24 content in culture supernatants. Data represent means±SD of triplicate samples from the same patient. Asterisks denote statistically significant differences (**, P<0.01), (*, P<0.05).\n(§4) It was assessed whether the DCIR inhibitor (Compound B2) could reduce viral production. Polarized Th17 CD4T cells (FIG. 13A) and PHA/IL-2 activated CD4T cells (FIG. 13B) were pretreated or not with DCIR inhibitor (Cpd B2) before being put into contact with NL4-3BalEnv. Cells were washed and incubated for 10 days and then p24 content was measured. […] Prevention of Th17 infection could be contributed to maintain an adequate intestinal homeostasis."}, "HIV-1 (NL4-3BalEnv) [4]": {"test_system": "HIV-1 (NL4-3BalEnv)", "experiment": "HIV replication in PHA/IL-2 activated CD4T cells (p24)", "format": "cell-based", "conditions": "10 μM", "description": "as §3, §4"}, "PHA-L/IL-2 CD4 T cells": {"test_system": "PHA-L/IL-2 CD4 T cells", "experiment": "Apoptosis (Z-Vad-FMK FITC), PHA-L/IL-2 CD4 T cells", "format": "cell-based, human", "conditions": "10 uM, 24 hrs", "description": "as §1, §2"}, "DCIR [5]": {"test_system": "DCIR", "experiment": "DCIR expression on Th17 CD4 T cells", "format": "cell-based, human", "conditions": "10 uM", "description": "as §1, §2"}, "Th17 CD4 T cells": {"test_system": "Th17 CD4 T cells", "experiment": "Apoptosis (Z-Vad-FMK FITC), Th17 CD4 T cells", "format": "cell-based, human", "conditions": "10 uM, 24 hrs", "description": "as §1, §2"}},
  "data": [
    {"smiles": "O=C(c1ccccc1)c1cc2ccccc2o1", "note": "[Compound B1, 1-benzofuran-2-yl(phenyl)methanone]", "values": [
      {"measurement": "decrease of HIV-1 attachment to H2O2 treated cells", "setting": "HIV-1 (NL4-3)", "value": "~40", "unit": "%"}
    ]},
    {"smiles": "O=C(/C=C/C=C/c1ccccc1)c1ccccc1", "note": "[Compound A1, 1,5-diphenyl-2,4-pentadien-1-one]", "values": [
      {"measurement": "decrease of HIV-1 attachment to H2O2 treated cells", "setting": "HIV-1 (NL4-3)", "value": "about 50%"}
    ]},
    {"smiles": "Cc1ccc(/N=[N+](\\[O-])c2ccc(C)cc2)cc1", "note": "[Compound B2, 1-methyl-4-[(4-methylphenyl)-NNO-azoxy]benzene]", "values": [
      {"measurement": "toxic effect (MTT assay)", "setting": "[1]", "value": "did not have a toxic effect"},
      {"measurement": "toxic effect (MTT assay)", "setting": "Polarized CD4 Th17 cells", "value": "did not have a toxic effect"},
      {"measurement": "DCIR expression", "setting": "DCIR [2]", "value": "marked reduction in DCIR expression"},
      {"measurement": "p24 content", "setting": "HIV-1 (NL4-3BalEnv) [3]", "value": "significantly reduced p24 content"},
      {"measurement": "p24 content", "setting": "HIV-1 (NL4-3BalEnv) [4]; after 3 and 7 days", "value": "non-significant trend for reduction"},
      {"measurement": "p24 content", "setting": "HIV-1 (NL4-3BalEnv) [4]; after 10 days", "value": "significant reduction"},
      {"measurement": "apoptosis", "setting": "PHA-L/IL-2 CD4 T cells", "value": "underwent less apoptosis"},
      {"measurement": "DCIR expression", "setting": "DCIR [5]", "value": "no difference in DCIR expression"},
      {"measurement": "apoptosis", "setting": "Th17 CD4 T cells", "value": "did not have any impact on apoptosis"}
    ]}
  ]
}
